Each structure is given as a SMILES string.

The text below walks through data of patent US20240158352A1, “NOVEL ADAMANTYL DERIVATIVE OR PHARMACEUTICALLY ACCEPTABLE SALT THEREOF, AND USE THEREOF” (CAN-Therapy Inc., priority 2021, published 2024).

Assay [1] concerns A549, a human lung cancer cell line. In words: WST cell viability assay, A549. Type of assay: cell-based. Particulars: for IC50: 48 h, A549, human lung cancer, WST, read-out: Cell growth inhibition IC50. On the procedure:
(§1) After treating LLC, a mouse lung carcinoma cell line, and A549, a human lung cancer cell line, with KUgt-102 derivatives, cell viability was measured by water soluble tetrazolium (WST) cell viability assay.
(§2) The lung cancer cell lines LLC and A549 were attached to a 96-well plate at 5×10e^3 and 1×10e^4 cells/wells, respectively. The next day, the culture medium was removed, and they were added with new medium treated with the KUgt-102 derivative and evogliptin and saxagliptin, respectively, which have a structure similar to that of the derivative of the present disclosure known as a DPP4 inhibitor, as a positive control, in a concentration-dependent manner from 0.01 to 20 mM. Cells treated with the derivative and control group were cultured at 37° C. in 5% CO2. After 2 days, the cultured cells were treated with WST reagent (EZ-CYTOX, Dogen, Republic of Korea) at a final volume of 1:10 to analyze cell viability. Thereafter, the cultured plate was stored in an incubator at 37° C.
(§3) After culturing for 1 hour, the color change was measured at 450 nm using a microplate reader (SpectraMAX190, molecular Devices, CA, USA), and the measurement results are shown in FIGS. 2 and 3.

For assay [2], the system named is LLC, a mouse lung carcinoma cell line. Briefly: WST cell viability assay, LLC. In kind it is cell-based. To be noted: 0.01 to 20 mM, 2 days; for IC50: 48 h, mouse lung carcinoma, WST, read-out: Cell growth inhibition IC50. The protocol: as §1, §2, §3
The target in a further assay is T1, DPP4 (human recombinant) (Homo sapiens, UniProt P27487).
T1 construct: purchased Abcam (Boston, USA) 133081
In words: DPP4 screening assay (Abcam 133081 kit, Gly-Pro-AMC fluorescent substrate). Type of assay: biochemical. Particulars: FIG. 1; for DPP4 inhibitory activity: treated at 1 μM, 100 nM, 10 nM, 1 nM and 100 pM, 37° C., 30 minutes. On the procedure:
DPP4 screening assay was performed to identify the DPP4 inhibitory activity of the adamantyl derivatives KUgt-102 and KUgt-103 of the present disclosure. Abcam (Boston, USA) 133081 was used as an assay kit, and Gly-Pro-Aminomethylcoumarin was used as a fluorescent substrate. That is, the fluorescence emitted from aminomethylcoumarin (AMC), which was freed by cleaving the peptide bond by DPP, was analyzed at an excitation wavelength of 350 to 360 nm and an emission wavelength of 450 to 465 nm to measure the DPP4 inhibitory activity.
More specifically, DPP Assay Buffer (10×) was dissolved in HPLC-grade pure water, thereby preparing 1× solution. 120 μl of DPP4 (human recombinant) contained in each glass vial was mixed with 480 μl of 1× assay buffer. 120 μl of Gly-Pro-AMC, in which 5 mM H-Gly-Pro was conjugated to AMC, was dissolved in 2.88 ml assay buffer to produce DPP substrate. As a positive control, vildagliptin and saxagliptin, which have a similar structure to the derivative of the present disclosure, known as DPP4 inhibitor, were dissolved in 500 μl of assay buffer to make 1 mM, and the result was used in the reaction. As an experimental group, 10 μl each of adamantyl derivatives KUgt-102 and KUgt-103 was used in the reaction. […] The reaction was repeated three times.
After the reaction, fluorescence was measured at an excitation wavelength of 350-360 nm and an emission wavelength of 450-465 nm using a fluorescence microplate reader (SPECTRA MAX Gemini EM, USA). Thereafter, the inhibitory activity was calculated as follows.

T1 sequence (P27487 whole entry): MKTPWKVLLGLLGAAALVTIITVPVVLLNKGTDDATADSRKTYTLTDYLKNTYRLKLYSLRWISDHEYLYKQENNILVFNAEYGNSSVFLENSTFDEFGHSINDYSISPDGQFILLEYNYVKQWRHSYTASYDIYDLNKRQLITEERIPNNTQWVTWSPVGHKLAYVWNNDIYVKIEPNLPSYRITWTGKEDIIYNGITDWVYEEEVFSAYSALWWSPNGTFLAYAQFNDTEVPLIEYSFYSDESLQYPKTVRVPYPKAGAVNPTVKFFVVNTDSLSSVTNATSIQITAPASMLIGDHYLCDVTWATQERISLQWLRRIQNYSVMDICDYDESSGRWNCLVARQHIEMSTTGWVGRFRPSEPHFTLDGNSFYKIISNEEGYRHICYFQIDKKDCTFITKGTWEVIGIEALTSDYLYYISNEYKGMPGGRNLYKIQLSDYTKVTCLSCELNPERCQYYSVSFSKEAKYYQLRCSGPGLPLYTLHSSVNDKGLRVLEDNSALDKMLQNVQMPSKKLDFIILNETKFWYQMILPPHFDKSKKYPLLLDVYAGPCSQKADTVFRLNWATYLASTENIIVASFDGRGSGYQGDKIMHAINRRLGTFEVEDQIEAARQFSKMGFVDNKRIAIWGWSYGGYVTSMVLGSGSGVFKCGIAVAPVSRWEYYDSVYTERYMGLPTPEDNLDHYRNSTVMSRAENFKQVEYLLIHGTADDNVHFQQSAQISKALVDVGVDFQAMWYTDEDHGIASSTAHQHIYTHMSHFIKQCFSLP

Regarding `CC(C)(C)OC[C@@H]1C(=O)NCCN1C(=O)C[C@H](N)Cc1cc(F)c(F)cc1F` [Evogliptin, evogliptin, reference compound], the IC50 (as a rule, the midpoint of a concentration-inhibition curve) in assay [1] (0.01 to 20 mM, 2 days) was determined as 750 ± 10 µM; in assay [2], 660 ± 10 µM.

Turning to `N#C[C@@H]1CCCCN1C(=O)[C@@H](N)C12CC3CC(CC(O)(C3)C1)C2` [KUgt-102, (S)-1-((S)-2-amino-2-((1r,3R,5R,7S)-3-hydroxyadamantan-1-yl)acetyl)piperidine-2-carbonitrile], the IC50 was found to be 240 ± 10 µM in assay [1] (0.01 to 20 mM, 2 days) and 330 ± 10 µM in assay [2]. Also, the cell viability result in assay [1] (A549, 0.01 to 20 mM, 2 days, FIG. 3) is “inhibited cell viability in a concentration-dependent manner”; in assay [2] (FIG. 2), “inhibited cell viability in a concentration-dependent manner”. Besides, the “anticancer activity relative to evogliptin and saxagliptin, based on the same amount” value in assay [1] (human lung cancer cell lines) is given as “about three times better anticancer activity”. The “amount needed for effective killing effect compared to evogliptin and saxagliptin” value in assay [1] (human lung cancer cell lines, relative to evogliptin and saxagliptin) is listed as not above 30%. Also, the “DPP4 inhibitory activity compared with positive controls vildagliptin and saxagliptin” value on DPP4 (human recombinant) is “higher inhibitory activity than vildagliptin and saxacliptin”. Besides, on DPP4 (human recombinant), the DPP4 inhibitory activity result is “excellent DPP4 inhibitory activity”.

Turning to `N[C@H](C(=O)N(CCO)CCO)C12CC3CC(CC(O)(C3)C1)C2` [KUgt-103, (S)-2-amino-2-((1r,3R,5R,7S)-3-hydroxyadamantan-1-yl)-N,N-bis(2-hydroxyethyl)acetamide], the DPP4 inhibitory activity entry on DPP4 (human recombinant) was “excellent DPP4 inhibitory activity”.

On to `N#C[C@@H]1C[C@@H]2C[C@@H]2N1C(=O)[C@@H](N)C12CC3CC(CC(O)(C3)C1)C2` [Saxagliptin, saxagliptin, reference compound], for which the IC50 came out at 900 ± 10 µM in assay [1] (0.01 to 20 mM, 2 days) and 950 ± 10 µM in assay [2].
